Source: patent US9944643B2, “Factor XIa inhibitors” (MERCK SHARP & DOHME CORP., priority 2014, dated 2018)

Molecular target: purified human Factor XIa (Homo sapiens (Human), UniProt P03951)
Test: Factor XIa Assay
Format: biochemical
Description: The effectiveness a of compound of the present invention as an inhibitor of Coagulation Factor XIa can be determined using a relevant purified serine protease, and an appropriate synthetic substrate. The rate of hydrolysis of the chromogenic or fluorogenic substrate by the relevant serine protease was measured both in the absence and presence of compounds of the present invention. Assays were conducted at room temperature or at 37° C. […] A decrease in the rate of fluorescence change in the presence of inhibitor is indicative of enzyme inhibition. Such methods are known to one skilled in the art. The results of this assay are expressed as the inhibitory constant, Ki.
Factor XIa determinations were made in 50 mM HEPES buffer at pH 7.4 containing 150 mM NaCl, 5 mM CaCl2, and 0.1% PEG 8000 (polyethylene glycol; J T Baker or Fisher Scientific). Determinations were made using purified human Factor XIa at a final concentration of 40 pM (Sekisui Diagnostics) and the synthetic substrate, Z-Gly-Pro-Arg-AFC, TFA salt (Sigma #C0980) at a concentration of 100 μM.
Activity assays were performed by diluting a stock solution of substrate at least tenfold to a final concentration ≤0.1 Km into a solution containing enzyme or enzyme equilibrated with inhibitor. Times required to achieve equilibration between enzyme and inhibitor were determined in control experiments. Initial velocities of product formation in the absence (Vo) or presence of inhibitor (Vi) were measured. Assuming competitive inhibition, and that unity is negligible compared Km/[S], [I]/e, and [I]/e (where [S], [I], and e respectively represent the total concentrations, of substrate, inhibitor and enzyme), the equilibrium constant (Ki) for dissociation of the inhibitor from the enzyme can be obtained from the dependence of Vo/Vi on [I] shown in the following equation. Vo/Vi=1+[I]/Ki

Chain of purified human Factor XIa (P03951 whole entry, looked up): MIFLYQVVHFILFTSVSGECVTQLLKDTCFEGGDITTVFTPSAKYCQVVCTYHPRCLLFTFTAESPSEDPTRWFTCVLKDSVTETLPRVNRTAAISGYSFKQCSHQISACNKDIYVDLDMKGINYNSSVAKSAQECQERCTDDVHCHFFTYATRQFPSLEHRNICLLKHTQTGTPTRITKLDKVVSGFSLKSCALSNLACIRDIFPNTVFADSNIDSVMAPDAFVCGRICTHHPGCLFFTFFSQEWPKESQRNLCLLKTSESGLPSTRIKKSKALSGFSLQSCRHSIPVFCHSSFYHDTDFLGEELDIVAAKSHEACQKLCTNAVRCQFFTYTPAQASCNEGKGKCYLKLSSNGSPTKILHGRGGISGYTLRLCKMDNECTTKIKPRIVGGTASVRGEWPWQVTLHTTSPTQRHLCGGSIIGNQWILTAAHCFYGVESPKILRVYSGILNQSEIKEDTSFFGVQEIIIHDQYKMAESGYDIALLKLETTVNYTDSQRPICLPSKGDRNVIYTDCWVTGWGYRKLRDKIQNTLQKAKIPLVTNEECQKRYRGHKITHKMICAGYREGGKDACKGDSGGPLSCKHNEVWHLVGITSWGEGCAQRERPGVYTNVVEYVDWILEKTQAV
Chain of purified human Factor XIa (P03951 whole entry partner, looked up): as the sequence (P03951 whole entry, looked up) above

SMILES | Ki [nM]
COC(=O)Nc1ccc2c(c1)NC(=O)CCCC[C@H](NC(=O)c1ccc(CN)c(C3CC3)c1)c1nc-2c[nH]1 [Example 1, Methyl [(7S)-7-({[4-(aminomethyl)-3-cyclopropylphenyl]carbonyl}amino)-2-oxo-1,2,3,4,5,6,7,9-octahydro-11,8-(azeno)-1,9-benzodiazacyclotridecin-14-yl]carbamate] | 0.1
COC(=O)Nc1ccc2c(c1)NC(=O)CCCC[C@H](NC(=O)c1cnc(CN)c(C3CC3)c1)c1nc-2c[nH]1 [Example 2] | 1.1
COC(=O)Nc1ccc2c(c1)N[C@@H](C(=O)O)CCCC[C@H](NC(=O)c1ccc(CN)c(C3CC3)c1)c1nc-2c[nH]1 [Example 3] | 0.1
COC(=O)Nc1ccc2c(c1)NC(=O)[C@@H](C)CCC[C@H](NC(=O)c1ccc(CN)c(C3CC3)c1)c1cc-2ccn1 [Example 4] | 0.03
COC(=O)Nc1ccc2c(c1)NC(=O)CCCC[C@H](NC(=O)c1ccc(CN)c(C3CC3)c1)c1nc-2c(Cl)[nH]1 [Example 5] | 0.05
CC(C)COC(=O)Nc1ccc2c(c1)NC(=O)[C@@H](C)CCC[C@H](NC(=O)c1ccc(CN)c(C3CC3)c1)c1cc-2ccn1 [Example 6] | 0.2
C[C@H]1CCC[C@H](NC(=O)c2ccc(CN)c(C3CC3)c2)c2cc(ccn2)-c2ccc(NC(=O)OC3CCCC3)cc2NC1=O [Example 7] | 0.3
COCCOC(=O)Nc1ccc2c(c1)NC(=O)[C@@H](C)CCC[C@H](NC(=O)c1ccc(CN)c(C3CC3)c1)c1cc-2ccn1 [Example 8] | 0.1
